Measurements: patent publication US20140106015A1, “COMPOSITION CONTAINING HEAT-TREATED POWDER OR EXTRACT OF GLYCINE SOJA AS ACTIVE GRADIENT FOR PREVENTION AND TREATMENT OF DIABETES MELLITUS AND DIABETIC COMPLICATIONS” (KOC BIOTEC CO LTD, priority 2011, published 2014)

Assays:
Type in all cases: in vivo, mouse
[1] = tested on: BKS.Cg-m+/+ Leprdb/J homozygous diabetic (db/db) mice; assay: Experimental Example 5: efficacy comparison with anthocyanins, pinitol, banaba/Cr complex in db/db mice
Description: “Pinitol”: Product containing 95% or more of pinitol (Sigma-Aldrich) “Banaba/Cr complex”: Wellness Banaba Gold ChromeTM (containing 400 mg/g banaba leaf extract, 200 mg/g indigestible maltodextrin and 0.1 mg/g chromium) Male db/db mice, aged 3 weeks, were acclimatized to an animal breeding room for 1 week. 4 mice were assigned to each experimental group. […] All animals were fasted for 6 h from 9 a.m. to 3 p.m. every Wednesday. Blood samples were collected from the mouse tail vein and blood glucose levels were measured using a portable blood glucose meter (OneTOUCH@Ultra, Johnson & Johnson, USA). […] The following are a total of 8 experimental groups used. Classification of Experimental Groups • NC: […] After the drug (test material) was administered to each experimental group for 6 weeks, abdominal, epididymal, and inguinal adipose tissues were excised from each experimental animal. The total weight of the adipose tissues was measured. […] For the autopsy, each animal was fasted for 12 h. […] After plasma was separated, the levels of total cholesterol, high-density lipoprotein (HDL) cholesterol, low-density lipoprotein (LDL) cholesterol, triglyceride, BUN, and phospholipid in the plasma were measured using an automatic biochemical analyzer (Hitachi-720, Hitachi Medical, Japan). […] The levels of glucose and insulin in the serum were analyzed. Plasma was obtained as a sample in the same manner. The plasma insulin level was measured using a Mouse Insulin ELISA kit (Shibayagi, Japan) and an ELISA reader (Labsystems, Finland). Data obtained from the above experiments were expressed as mean±standard error and significance assay was determined using Student's T-test.

[2] = tested on: db/db mice; assay: Experimental Example 2: glycine soja streamed powder versus metformin in db/db mice, 6 weeks oral; conditions: age of 10 weeks, fasted about 16 h, DC and bean powder 2 g/kg/day, metformin 150 mg/kg/day
[3] = tested on: db/db mice; assay: as above; conditions: age of 10 weeks
Description: The glycine soja streamed powder (DC) was diluted with physiological saline and the dilution was orally administered in divided portions (each 0.2 ml) at 10 a.m. and 4 p.m. daily using a mouse sonde (2 g/kg/day). Metformin (1,1-dimethylbiguanide), which is a widely used hypoglycemic agent, was chosen as positive control. Metformin was dissolved in 0.25% carboxymethylcellulose (CMC) and administered orally in two divided portions (each 0.2 ml) in the same manner (150 mg/kg/day). The same amount of physiological saline as negative control was administered in the same manner. A general bean streamed powder was used as another comparative test group. The bean streamed powder was obtained in the same manner as in Example 1, except that bean was used instead of glycine soja. The bean streamed powder was administered orally twice a day in the same amount and manner as the glycine soja streamed powder (DC).
Male db/db mice, aged 3 weeks, were acclimatized to an animal breeding room for 1 week. 6 mice were assigned to each experimental group. The blood glucose levels of the animals were measured from the age of 4 weeks at intervals of 1 week for a total of 6 weeks. Drug was administered orally in divided portions (each 0.2 ml) at 10 a.m. and 4 p.m. daily using a mouse sonde. All animals were fasted for 6 h from 9 a.m. to 3 p.m. every Wednesday. Blood samples were collected from the mouse tail vein and blood glucose levels were measured using a portable blood glucose meter (OneTOUCH@Ultra. Johnson & Johnson, USA). Since serum for final biochemical analysis requires blood sampling after fasting for at least 12 h, blood glucose levels were measured at the final 8th week. 2 days after the measurement, an autopsy was conducted. For the autopsy, all animals were fasted for 12 h. Blood samples were drawn from the heart under ether anesthesia, put in tubes for serum separation, and centrifuged at 3000 rpm for 20 min to obtain serum samples, which were used as samples for the analysis of biochemical indices.
Experimental Group Classification • Control (db/db mice) (n=6) • Positive control (Metformin, 150 mg/kg/day, o.p) (n=6) • Glycine soja streamed powder (DC) (2.0 g/kg/day, o.p) (n=6) • Bean powder (2.0 g/kg/day, o.p) (n=6)
After a test material was administered to each experimental group for 6 weeks, blood glucose level was measured at the final 8th week. 2 days after the measurement, an autopsy was conducted. For the autopsy, each animal was fasted for 12 h. Blood was drawn from the heart under ether anesthesia, put in a tube for serum separation, and centrifuged at 3000 rpm for 20 min to obtain serum, which was used as a sample for the analysis of biochemical indices. The glucose and insulin levels of the serum were analyzed. Changes in the insulin level and insulin resistance index (HOMAIR) of each experimental group during administration for 8 weeks period were calculated by the following formulae. Plasma was obtained as a sample in the same manner. The level of insulin in the plasma was measured using a Mouse Insulin ELISA kit (Shibayagi, Japan) and an ELISA reader (Labsystems, Finland).
After a test material was administered to each experimental group for 6 weeks, abdominal, epididymal, and inguinal adipose tissues were excised from each experimental animal. The total weight of the adipose tissues was measured.
Blood was obtained in the same manner as in 1-3, put in a tube for serum separation, and centrifuged at 3000 rpm for 20 min to obtain serum, which was used as a sample for the analysis of biochemical indices. Total cholesterol, high-density lipoprotein (HDL) cholesterol, low-density lipoprotein (LDL) cholesterol, triglyceride, and phospholipid levels, which are indices of lipid contents in plasma and liver, in the plasma were measured using an automatic biochemical analyzer (Hitachi-720, Hitachi Medical, Japan). […]

[4] = db/db mice, 100 mg/kg/day, BANABA 300 mg/kg/day
[5] = DC and bean powder 2 g/kg/day, metformin 150 mg/kg/day
[6] = metformin 150 mg/kg/day, bean powder 2 g/kg/day

Q: With CO[C@H]1[C@H](O)[C@@H](O)[C@@H](O)[C@H](O)[C@@H]1O [Pinitol, pinitol] as the compound, how does the “serum BUN level higher than non-treated group” value ([1]; No. 4 mouse of the Pinitol-administered group) read?
A: ≥ 3 times

Q: And the “serum BUN level” value ([1]; No. 4 mouse of the Pinitol-administered group, 100 mg/kg/day, NC 30.2 mg/dL)?
A: 92.8 mg/dL

Q: And the blood glucose level ([1]; db/db mice, 9th week, tail vein, fasted 6 h, oral 6 weeks, 100 mg/kg/day, BANABA 300 mg/kg/day)?
A: 231.8 mg/dL

Q: What about the “blood glucose level lower than NC (hypoglycemic efficacy)” value ([1]; db/db mice, 9th week, 100 mg/kg/day, BANABA 300 mg/kg/day) of the same compound?
A: 52.1%

Q: What about the “daily food intake compared with non-treated group” value ([1]; db/db mice, after completion of the tests) of the same compound?
A: smaller

Q: And the “serum low-density lipoprotein cholesterol level compared with non-treated group” value ([1]; db/db mice, age of 9 weeks)?
A: not substantially different

Q: And the serum insulin level ([1]; db/db mice, age of 9 weeks, 100 mg/kg/day, BANABA 300 mg/kg/day)?
A: 6.6 ng/mL

Q: What about the “serum insulin level lower than NC (suppressive efficacy on insulin resistance)” value ([1]; db/db mice, age of 9 weeks, NC 10.2 ng/ml) of the same compound?
A: 35.3%

Q: What about the “serum triglyceride (TG) level relative to non-treated group (NC)” value ([1]; db/db mice, age of 9 weeks, NC 22 mg/dL) of the same compound?
A: approximately twice

Q: What about the “serum total cholesterol level compared with non-treated group” value ([1]; db/db mice, age of 9 weeks, NC 168.3 mg/dL) of the same compound?
A: not substantially different

Q: And the “adipose tissue weight lower than non-treated group (NC)” value ([1]; db/db mice, age of 10 weeks)?
A: about 5.4%

Q: And the “liver tissue weight compared with NC” value ([1]; db/db mice, age of 10 weeks)?
A: not substantially different

Q: And the “liver tissue weight lower than non-treated group (NC)” value ([1]; db/db mice, age of 10 weeks, p<0.05)?
A: about 7.0%

Q: What about the “food efficiency ratio compared with non-treated group” value ([1]; db/db mice, for 5 weeks) of the same compound?
A: similar

Q: And the “Food efficiency ratio (PER, %)” value ([1]; db/db mice, for 5 weeks, calculated from food intakes and body weight gains)?
A: 11.9 ± 1.28%

Q: And the Body weight gain [1, 4]?
A: 0.500 ± 0.05 g/day

Q: What about the Food intake [1, 4] of the same compound?
A: 4.20 g/day

Q: For CN(C)C(=N)NC(=N)N [metformin, 1,1-dimethylbiguanide], which serum glucose level [2] is on record?
A: 376.0 mg/dL

Q: What about the “serum high-density lipoprotein cholesterol level compared with non-administered group” value [3] of the same compound?
A: no significant differences

Q: And the “serum triglyceride level lower than non-administered group (NC)” value ([3]; DC 2 g/kg/day, metformin 150 mg/kg/day)?
A: 38.8%

Q: What about the “serum ALT level” value [3, 5] of the same compound?
A: 54.9 U/L

Q: And the “serum AST level” value [3, 5]?
A: 120.0 U/L

Q: What about the “serum glucose level lower than non-administered group” value [3, 5] of the same compound?
A: 34.6%

Q: And the “serum triglyceride (TG) level” value [3, 5]?
A: 78.8 mg/dL

Q: And the “serum total cholesterol level compared with non-administered group” value ([3]; metformin 150 mg/kg/day)?
A: low compared to that of the non-administered group, but there was no statistical significance

Q: And the “serum insulin level compared with non-administered group” value [3, 6]?
A: slightly lower than the serum insulin level of the non-administered group, but there were no statistical significances

Q: And the “serum low-density lipoprotein cholesterol level compared with non-administered group” value [3, 6]?
A: low compared to the low-density lipoprotein cholesterol level of the non-administered group, but there were no statistical significances

Q: And the “blood glucose level lower than non-administered group (NC)” value ([3]; oral 6 weeks, DC and bean powder 2 g/kg/day, metformin 150 mg/kg/day)?
A: 34.6%
